Data taken from ChEMBL document CHEMBL1629523, “Synthesis and antibacterial activity of C-12 pyrazolinyl spiro ketolides” (2010).
Converted amounts (≈) assume the structure as drawn.

What was measured:
Format in all cases: functional
[1] = tested on: Haemophilus influenzae; assay: Antibacterial activity against erythromycin-susceptible Haemophilus influenzae 5096 by broth microdilution method
[2] = tested on: Staphylococcus aureus; assay: Antibacterial activity against erythromycin-resistant Staphylococcus aureus 5676 by broth microdilution method
[3] = tested on: Streptococcus pneumoniae; assay: Antibacterial activity against erythromycin-resistant Streptococcus pneumoniae 5158 by broth microdilution method
[4] = tested on: Staphylococcus aureus; assay: Antibacterial activity against erythromycin-resistant Staphylococcus aureus 5677 by broth microdilution method
[5] = tested on: Staphylococcus aureus; assay: Antibacterial activity against erythromycin-resistant Staphylococcus aureus AD-08 by broth microdilution method
[6] = tested on: Haemophilus influenzae; assay: Antibacterial activity against erythromycin-resistant Haemophilus influenzae 2412 by broth microdilution method
[7] = tested on: Staphylococcus aureus; assay: Antibacterial activity against erythromycin-susceptible Staphylococcus aureus 26001 by broth microdilution method
[8] = tested on: Staphylococcus aureus; assay: Antibacterial activity against erythromycin-susceptible Staphylococcus aureus ATCC 29213 by broth microdilution method
[9] = tested on: Staphylococcus aureus; assay: Antibacterial activity against erythromycin-susceptible Staphylococcus aureus ATCC 6538p by broth microdilution method
[10] = tested on: Streptococcus pneumoniae; assay: Antibacterial activity against erythromycin-resistant Streptococcus pneumoniae 673 by broth microdilution method
[11] = tested on: Streptococcus pneumoniae; assay: Antibacterial activity against erythromycin-resistant Streptococcus pneumoniae 1210 by broth microdilution method
[12] = tested on: Streptococcus pneumoniae; assay: Antibacterial activity against erythromycin-susceptible Streptococcus pneumoniae 2860 by broth microdilution method

## CCOC(=O)C1NN=CC12[C@H](O)[C@@H](C)C(=O)[C@H](C)C[C@@](C)(OC)[C@H](O[C@@H]1O[C@H](C)C[C@H](N(C)C)[C@H]1O)[C@@H](C)C(=O)[C@@H](C)C(=O)O[C@@H]2CC (some centres not stated)
[1]
  MIC: 0.06 µg/mL (≈ 0.0877 µM)
[2]
  MIC: 8 µg/mL (≈ 11.7 µM)
[3]
  MIC: 8 µg/mL (≈ 11.7 µM)
[4]
  MIC: 8 µg/mL (≈ 11.7 µM)
[5]
  MIC: 512 µg/mL (≈ 749 µM)
[6]
  MIC: > 8 µg/mL
[7]
  MIC: 0.12 µg/mL (≈ 0.175 µM)
[8]
  MIC: 0.12 µg/mL (≈ 0.175 µM)
[9]
  MIC: 0.12 µg/mL (≈ 0.175 µM)
[10]
  MIC: 8 µg/mL (≈ 11.7 µM)
[11]
  MIC: > 64 µg/mL
[12]
  MIC: 0.5 µg/mL (≈ 0.731 µM)

## CC[C@H]1OC(=O)[C@H](C)[C@@H](O[C@H]2C[C@@](C)(OC)[C@@H](O)[C@H](C)O2)[C@H](C)[C@@H](O[C@@H]2O[C@H](C)C[C@H](N(C)C)[C@H]2O)[C@](C)(OC)C[C@@H](C)C(=O)[C@H](C)[C@@H](O)[C@]1(C)O [CLARITHROMYCIN]
[1]
  MIC: 0.06 µg/mL (≈ 0.0802 µM)
[2]
  MIC: > 1020 µg/mL
[3]
  MIC: > 16 µg/mL
[4]
  MIC: > 1020 µg/mL
[5]
  MIC: > 1020 µg/mL
[6]
  MIC: 8 µg/mL (≈ 10.7 µM)
[7]
  MIC: ≤ 0.063 µg/mL
[8]
  MIC: 0.25 µg/mL (≈ 0.334 µM)
[9]
  MIC: 0.5 µg/mL (≈ 0.668 µM)
[10]
  MIC: > 16 µg/mL
[11]
  MIC: > 16 µg/mL
[12]
  MIC: 0.125 µg/mL (≈ 0.167 µM)

## CC[C@H]1OC(=O)[C@H](C)[C@@H](O[C@H]2C[C@@](C)(OC)[C@@H](O)[C@H](C)O2)[C@H](C)[C@@H](O[C@@H]2O[C@H](C)C[C@H](N(C)C)[C@H]2O)[C@](C)(O)C[C@@H](C)C(=O)[C@H](C)[C@@H](O)[C@]1(C)O [ERYTHROMYCIN]
[1]
  MIC: 0.06 µg/mL (≈ 0.0818 µM)
[2]
  MIC: > 1020 µg/mL
[3]
  MIC: > 32 µg/mL
[4]
  MIC: > 1020 µg/mL
[5]
  MIC: > 1020 µg/mL
[6]
  MIC: 4 µg/mL (≈ 5.45 µM)
[7]
  MIC: ≤ 0.063 µg/mL
[8]
  MIC: 0.5 µg/mL (≈ 0.681 µM)
[9]
  MIC: 0.5 µg/mL (≈ 0.681 µM)
[10]
  MIC: > 32 µg/mL
[11]
  MIC: > 32 µg/mL
[12]
  MIC: 0.25 µg/mL (≈ 0.341 µM)

## CC[C@H]1OC(=O)[C@H](C)C(=O)[C@H](C)[C@@H](O[C@@H]2O[C@H](C)C[C@H](N(C)C)[C@H]2O)[C@](C)(OC)C[C@@H](C)C(=O)[C@H](C)[C@@H](O)C12C=NNC2C(=O)OC (some centres not stated)
[1]
  MIC: 0.06 µg/mL (≈ 0.0896 µM)
[2]
  MIC: 4 µg/mL (≈ 5.97 µM)
[3]
  MIC: 8 µg/mL (≈ 11.9 µM)
[4]
  MIC: 4 µg/mL (≈ 5.97 µM)
[5]
  MIC: 256 µg/mL (≈ 382 µM)
[6]
  MIC: > 8 µg/mL
[7]
  MIC: 0.03 µg/mL (≈ 0.0448 µM)
[8]
  MIC: 0.12 µg/mL (≈ 0.179 µM)
[9]
  MIC: 0.12 µg/mL (≈ 0.179 µM)
[10]
  MIC: 8 µg/mL (≈ 11.9 µM)
[11]
  MIC: > 64 µg/mL
[12]
  MIC: 0.5 µg/mL (≈ 0.746 µM)

## CC[C@H]1OC(=O)[C@H](C)C(=O)[C@H](C)[C@@H](O[C@@H]2O[C@H](C)C[C@H](N(C)C)[C@H]2O)[C@](C)(OC)C[C@@H](C)C(=O)[C@H](C)[C@@H](O)C12C=NNC2C (some centres not stated)
[1]
  MIC: 0.06 µg/mL (≈ 0.0959 µM)
[2]
  MIC: 8 µg/mL (≈ 12.8 µM)
[3]
  MIC: > 64 µg/mL
[4]
  MIC: 8 µg/mL (≈ 12.8 µM)
[5]
  MIC: 512 µg/mL (≈ 818 µM)
[6]
  MIC: > 8 µg/mL
[7]
  MIC: 0.12 µg/mL (≈ 0.192 µM)
[8]
  MIC: 0.5 µg/mL (≈ 0.799 µM)
[9]
  MIC: 0.25 µg/mL (≈ 0.399 µM)
[10]
  MIC: > 64 µg/mL
[11]
  MIC: > 64 µg/mL
[12]
  MIC: 0.5 µg/mL (≈ 0.799 µM)

## CC[C@H]1OC(=O)[C@H](C)C(=O)[C@H](C)[C@@H](O[C@@H]2O[C@H](C)C[C@H](N(C)C)[C@H]2O)[C@@](C)(OC)C[C@@H](C)C(=O)[C@H](C)[C@@H](O)C12C=NNC2 (some centres not stated)
[1]
  MIC: 0.06 µg/mL (≈ 0.0981 µM)
[2]
  MIC: 4 µg/mL (≈ 6.54 µM)
[3]
  MIC: > 64 µg/mL
[4]
  MIC: 8 µg/mL (≈ 13.1 µM)
[5]
  MIC: 512 µg/mL (≈ 837 µM)
[6]
  MIC: > 8 µg/mL
[7]
  MIC: 0.12 µg/mL (≈ 0.196 µM)
[8]
  MIC: 0.25 µg/mL (≈ 0.409 µM)
[9]
  MIC: 0.25 µg/mL (≈ 0.409 µM)
[10]
  MIC: > 64 µg/mL
[11]
  MIC: > 64 µg/mL
[12]
  MIC: 0.5 µg/mL (≈ 0.817 µM)
